Test results reported in PubChem BioAssay AID2060611 (Molecular Pharmacology Branch, DTP, NCI, 2025).
Several values for one entry are separate records, joined by “and”; a condition that tells them apart may be missing. Identical values can stand only once.

System: 628569-122-R-J1-PDC complex spheroid viability
Test: Anticancer human tumor 628569-122-R-J1-PDC patient-derived head and neck squamous carcinoma cell line growth inhibition [CLK]
Conditions: for viability, T/C: stronger effect = lower value
How it was run: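 Multi-cell-type spheroids combined patient-derived tumor cells with HUVEC endothelial cells and human mesenchymal stem cells. Paired agents were dosed in half-log steps down from about clinical Cmax, or from 10 microM where Cmax was unknown.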

[1] = curve of first compound, second compound 0.0316 µM
[2] = curve of first compound, second compound 0.1 µM
[3] = curve of first compound, second compound 0.316 µM
[4] = curve of first compound, second compound 1 µM
[5] = curve of first compound, second compound 3.16 µM
[6] = curve of first compound, second compound 10 µM
[7] = second compound 0.0316 µM, first compound 0.0316 µM
[8] = second compound 0.0316 µM, first compound 0.1 µM
[9] = second compound 0.0316 µM, first compound 0.316 µM
[10] = second compound 0.0316 µM, first compound 1 µM
[11] = second compound 0.0316 µM, first compound 3.16 µM
[12] = second compound 0.0316 µM, first compound 10 µM
[13] = second compound 0.1 µM, first compound 0.0316 µM
[14] = second compound 0.1 µM, first compound 0.1 µM
[15] = second compound 0.1 µM, first compound 0.316 µM
[16] = second compound 0.1 µM, first compound 1 µM
[17] = second compound 0.1 µM, first compound 3.16 µM
[18] = second compound 0.1 µM, first compound 10 µM
[19] = second compound 0.316 µM, first compound 0.0316 µM
[20] = second compound 0.316 µM, first compound 0.1 µM
[21] = second compound 0.316 µM, first compound 0.316 µM
[22] = second compound 0.316 µM, first compound 1 µM
[23] = second compound 0.316 µM, first compound 3.16 µM
[24] = second compound 0.316 µM, first compound 10 µM
[25] = second compound 1 µM, first compound 0.0316 µM
[26] = second compound 1 µM, first compound 0.1 µM
[27] = second compound 1 µM, first compound 0.316 µM
[28] = second compound 1 µM, first compound 1 µM
[29] = second compound 1 µM, first compound 3.16 µM
[30] = second compound 1 µM, first compound 10 µM
[31] = second compound 3.16 µM, first compound 0.0316 µM
[32] = second compound 3.16 µM, first compound 0.1 µM
[33] = second compound 3.16 µM, first compound 0.316 µM
[34] = second compound 3.16 µM, first compound 1 µM
[35] = second compound 3.16 µM, first compound 3.16 µM
[36] = second compound 3.16 µM, first compound 10 µM
[37] = second compound 10 µM, first compound 0.0316 µM
[38] = second compound 10 µM, first compound 0.1 µM
[39] = second compound 10 µM, first compound 0.316 µM
[40] = second compound 10 µM, first compound 1 µM
[41] = second compound 10 µM, first compound 3.16 µM
[42] = second compound 10 µM, first compound 10 µM
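Also: spheroids exposed to agents for seven days before readout.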
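For viability, T/C in this document: 100% = DMSO vehicle control viability.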

In the case of `COc1cccc2c1C(=O)c1c(O)c3c(c(O)c1C2=O)CC(O)(C(=O)CO)CC3OC1CC(N)C(O)C(C)O1` (stereo not drawn) + CN1CCN(c2cc(C(=O)Nc3cc4cc(-c5cnn(C)c5)ccc4cn3)ccn2)CC1, the IC50 [1] is reported as 658 nM, the IC50 [2] is reported as 567 nM and the IC50 [3] is reported as < 31.6 nM. The IC50 [4] was < 31.6 nM, the IC50 [5] was < 31.6 nM and the IC50 [6] was < 31.6 nM. It also gave a viability, T/C [7] of 79.8%, a viability, T/C [8] of 64.6% and a viability, T/C [9] of 114%. It also gave a viability, T/C [10] of 29.3%, a viability, T/C [11] of 9.76% and a viability, T/C [12] of 6.19%. The viability, T/C [13] was 69.3%, the viability, T/C [14] was 85.4% and the viability, T/C [15] was 96.8%. The viability, T/C [16] was 17.1%, the viability, T/C [17] was 11.4% and the viability, T/C [18] was 6.38%. For the same molecule, the viability, T/C [19] was 36.8%, the viability, T/C [20] was 58% and the viability, T/C [21] was 15%. For the same molecule, the viability, T/C [22] was 4.91%, the viability, T/C [23] was 9.87% and the viability, T/C [24] was 7.68%. It also gave a viability, T/C [25] of 7.46%, a viability, T/C [26] of 5.6% and a viability, T/C [27] of 6.96%. For the same molecule, the viability, T/C [28] was 8.8%, the viability, T/C [29] was 7.92% and the viability, T/C [30] was 4.27%. It also gave a viability, T/C [31] of 10.7%, a viability, T/C [32] of 6.4% and a viability, T/C [33] of 4.58%. It also gave a viability, T/C [34] of 8.38%, a viability, T/C [35] of 7.51% and a viability, T/C [36] of 3.19%. For the same molecule, the viability, T/C [37] was 2.99%, the viability, T/C [38] was 3.91% and the viability, T/C [39] was 1.4%. For the same molecule, the viability, T/C [40] was 7.4%, the viability, T/C [41] was 3.49% and the viability, T/C [42] was 0.29%.

`C#Cc1c(F)ccc2cc(O)cc(-c3ncc4c(N5CC6CCC(C5)N6)nc(OCC56CCCN5CC(F)C6)nc4c3F)c12` (stereo not drawn) + CN1CCN(c2cc(C(=O)Nc3cc4cc(-c5cnn(C)c5)ccc4cn3)ccn2)CC1 was tested, and the IC50 [1] was > 10000 nM, the IC50 [2] was > 10000 nM and the IC50 [3] was < 31.6 nM. The IC50 [4] was < 31.6 nM, the IC50 [5] was < 31.6 nM and the IC50 [6] was < 31.6 nM. The viability, T/C [7] was 80.5%, the viability, T/C [8] was 100% and the viability, T/C [9] was 88.8%. The viability, T/C [10] was 92.9%, the viability, T/C [11] was 84.8% and the viability, T/C [12] was 96%. It also gave a viability, T/C [13] of 56.6%, a viability, T/C [14] of 61.1% and a viability, T/C [15] of 64.8%. The viability, T/C [16] was 63.3%, the viability, T/C [17] was 57.1% and the viability, T/C [18] was 44.9%. It also gave a viability, T/C [19] of 32.3%, a viability, T/C [20] of 33.5% and a viability, T/C [21] of 34.9%. For the same molecule, the viability, T/C [22] was 42.4%, the viability, T/C [23] was 37.6% and the viability, T/C [24] was 29.9%. The viability, T/C [25] was 7.93%, the viability, T/C [26] was 5.94% and the viability, T/C [27] was 7.93%. For the same molecule, the viability, T/C [28] was 8.03%, the viability, T/C [29] was 5.77% and the viability, T/C [30] was 5.01%. The viability, T/C [31] was 9.44%, the viability, T/C [32] was 7.11% and the viability, T/C [33] was 5.82%. The viability, T/C [34] was 5.27%, the viability, T/C [35] was 5.66% and the viability, T/C [36] was 7.7%. It also gave a viability, T/C [37] of 5.72%, a viability, T/C [38] of 3.17% and a viability, T/C [39] of 2.28%. It also gave a viability, T/C [40] of 4.25%, a viability, T/C [41] of 5.23% and a viability, T/C [42] of 1%.

For `CC(CO)NC(=O)c1cc(-c2ccc(Cl)cc2)nn(-c2cnn(C)c2)c1=O` (stereo not drawn), the viability, T/C (compound 0.0316 µM) was 112% and 116%, the viability, T/C (compound 0.1 µM) was 123% and 158% and the viability, T/C (compound 0.316 µM) was 177% and 202%. For the same molecule, the viability, T/C (compound 1 µM) was 169% and 217%, the viability, T/C (compound 3.16 µM) was 175% and 243% and the viability, T/C (compound 10 µM) was 149% and 181%. For the same molecule, the IC50 (curve of compound) was > 10000 nM.

For `CN1CCN(c2cc(C(=O)Nc3cc4cc(-c5cnn(C)c5)ccc4cn3)ccn2)CC1`, the viability, T/C (compound 0.0316 µM) was 104% [middle of 12 runs], the viability, T/C (compound 0.1 µM) was 69.2% [middle of 12 runs] and the viability, T/C (compound 0.316 µM) was 35.6% [middle of 12 runs]. The viability, T/C (compound 1 µM) was 5.28% [middle of 12 runs], the viability, T/C (compound 3.16 µM) was 7.69% [middle of 12 runs] and the viability, T/C (compound 10 µM) was 6.81% [middle of 12 runs]. The IC50 (compound alone, run of 09/18/2023) was 187 nM [middle of 12 runs].
